According to the OPERA property sets (Mansouri et al. 2018):

Conditions: for log10 BCF / log10 biotransformation half-life (days): fish

SMILES	melting point [°C]	boiling point [°C]	other results
c1ccc2nc(-c3ccc4ccccc4n3)ccc2c1	194	–	log10 Koc (L/kg): 4.02
Cc1c([N+](=O)[O-])cc(C(C)C)c(O)c1[N+](=O)[O-]	55.5	–	–
N#Cc1c(Cl)cccc1Cl	144	270	log10 Koc (L/kg): 2.5; log10 vapour pressure (mmHg): -3.18
C[C@H](NC(=O)COC(=O)c1ccccc1)C(N)=O	202	–	–
CC(C)CNCCO	–	199	–
N#CCc1ccccc1Br	1	–	–
Cc1ccc(C(C)c2ccc(C)cc2)cc1	–	298	–
c1cc2c3c(c1)ccc1cccc(c13)C2	114	353	–
CCOP(=S)(OCC)SCSC(C)(C)C	-29.2	–	log10 Koc (L/kg): 2.82; log10 vapour pressure (mmHg): -3.49
Cc1c(NC(C)C)c(=O)n(-c2ccccc2)n1C	80	–	–
CC(C)Oc1cccc(NC(=O)c2ccccc2C(F)(F)F)c1	104	–	log10 vapour pressure (mmHg): -7.31; log10 BCF: 1.29; log10 biotransformation half-life (days): -0.61
Nc1ccc([N+](=O)[O-])cn1	187	–	–
CCCCOc1ccc(/N=N/c2ccc(N)nc2N)cn1	129	–	–
O=C(OC[C@H]1O[C@](O)(COC(=O)c2cccnc2)[C@@H](OC(=O)c2cccnc2)[C@@H]1OC(=O)c1cccnc1)c1cccnc1	141	–	–
OCC1c2ccccc2-c2ccccc21	106	–	–
Cc1cccnc1C	–	161	log10 Henry constant (atm·m³/mol): -5.14; log10 vapour pressure (mmHg): 0.43
CC(Br)C(Br)CBr (centres undefined)	-19	220	–
C#CC=CC=C	-81	83.5	–
O=C(/C=C/C=C/c1ccc2c(c1)OCO2)N1CCCCC1	132	–	–
C=CC[Si](C)(C)C	–	86	–
CCC1(c2ccc(N)cc2)CCC(=O)NC1=O (centres undefined)	150	–	–

SMILES	melting point [°C]	boiling point [°C]	other results
c1cncc(-c2ccnc(-c3cccnc3)c2)c1	148	–	–
O=C(O)Cc1cccc(Br)c1	101	–	–
CC(=O)CC(=O)CC(C)=O	49	–	–
CC(C)CCOCCC(C)C	–	172	log10 vapour pressure (mmHg): 0.146; ready biodegradability: not readily biodegradable; log10 BCF: 2.23; log10 biotransformation half-life (days): -0.45
O=C(O)C1CSCN1 (centres undefined)	196	–	–
CC(C)OC(=O)Nc1ccccc1	87.3	–	log10 Koc (L/kg): 1.83; log10 vapour pressure (mmHg): -3.85
c1ccc(CSCc2ccccc2)cc1	49.5	–	–
OCCO	–	197	log10 Henry constant (atm·m³/mol): -7.22; log10 vapour pressure (mmHg): -1.04; ready biodegradability: readily biodegradable
CCOC(CO)OCC	–	167	–
CCCCc1ccc(C(=O)O)nc1	97	–	–
C=Cc1cccnc1	–	162	–
CCN(CC)CCCO	–	190	–
CC1(C)CC(C)(c2ccccc2)c2ccccc21 (centres undefined)	52.5	308	–
Cc1ccc(N(CCO)CCO)cc1	–	339	–
Oc1cccc(Cl)c1Cl	58	206	log10 Koc (L/kg): 2.66; log10 vapour pressure (mmHg): -1.24; ready biodegradability: not readily biodegradable; log10 BCF: 1.13
CCCC(C(C)=O)C(=O)OCC (centres undefined)	–	224	–
O=[N+]([O-])c1ccccc1CCO	2	267	–
Cc1ccc(C(C)C)c(C)c1	-82	197	–
COc1ccccc1N1CCN(CCCC(=O)c2ccc(F)cc2)CC1	68	–	–
COOC	–	14	–
Cc1ccc(-c2ccccc2)cc1	49.5	268	log10 biodegradation half-life (days): 1.58

SMILES	melting point [°C]	boiling point [°C]	other results
CCC1(O)CCCCC1	34.5	166	–
NCCCNCCCCNCCCN	29	–	–
c1ccc(-c2cccnc2)nc1	–	296	–
CC(O)C(C)C(C)O (centres undefined)	–	212	–
FC(F)(F)C(F)(F)C(F)(F)C(F)(F)C(F)(F)I	-50	94.4	–
O=C[C@H](O)[C@@H](O)[C@@H](O)[C@H](O)C(=O)O	166	–	–
CO[C@@H]1C=C[C@@]23c4cc5c(cc4CO[C@]2(O)CN(C)[C@H]3C1)OCO5	210	–	–
CC(C)OC(=O)OOC(C)(C)C	–	–	ready biodegradability: not readily biodegradable
CCCCCCCCCCCCCCCCCCCCCCCCCC	56.4	412	log10 biodegradation half-life (days): 2; log10 vapour pressure (mmHg): -6.33; ready biodegradability: readily biodegradable
BrCC(Br)c1ccccc1 (centres undefined)	75	–	log10 vapour pressure (mmHg): -1.97
O=[N+]([O-])c1ccc2[nH]ccc2c1	141	–	–
CCNc1nc(NC(C)(C)C)nc(SC)n1	104	–	log10 Koc (L/kg): 2.85; log10 vapour pressure (mmHg): -5.77; ready biodegradability: not readily biodegradable
COC(=O)c1ccc(O)c(OC)c1	64	286	–
CCC1CCCS1 (centres undefined)	–	157	–
CC1=C2[C@H]3OC(=O)[C@@H](C)[C@@H]3[C@@H](O)C[C@@]2(C)C=CC1=O	203	–	–
NC(Cc1ccccc1)C(=O)O (centres undefined)	–	–	ready biodegradability: readily biodegradable
c1ccc(C2CCOCO2)cc1 (centres undefined)	–	247	–
Cc1cc(C)cc(C)c1	-44.7	165	log10 Henry constant (atm·m³/mol): -2.06; log10 Koc (L/kg): 2.82; log10 biodegradation half-life (days): 0.477; log10 vapour pressure (mmHg): 0.395; ready biodegradability: not readily biodegradable; log10 BCF: 2.27; log10 biotransformation half-life (days): 0.4
COC(F)(F)C(F)(F)C(F)(F)F	–	–	log10 vapour pressure (mmHg): 2.75
FC(F)(F)C(F)(F)C(F)(F)C(F)(F)C(F)(F)C(F)(F)C(F)(F)C(F)(F)C(F)(F)Br	–	159	–
